Test results reported in patent US4515942A, “Antibiotics KA-6606 XII, XIII, XV, XVI and XVII” (Kowa Company, Ltd., priority 1980, dated 1985).

How the values were obtained:
Stability = type: physicochemical; settings: pH range in which stable
Solubility in solvents = type: physicochemical
Proteus inconstans = assay: disc plate method (Table 2); type: cell-based; settings: 1 mg/ml, paper disc 8 mm, Proteus inconstans (Table 2); for zone of inhibition at 1000 µg/mL: Providencia alcalifaciens, read-out: Inhibition zone (diameter)
Source text: (§1) Tables 1 and 2 show the antibacterial spectra of the antibiotics KA-6606 VII to KA-6606 XVII against various bacteria, determined by the disc plate method, in comparison with the KA-6606 II substance. Each of the chemicals is used as impregnated in a paper disc having a diameter of 8 mm.

[1] = system: Pseudomonas aeruginosa NCTC 10490; assay: disc plate method (Table 2); type: cell-based; settings: paper disc 8 mm; for zone of inhibition at 1000 µg/mL / zone of inhibition at 10000 µg/mL: Pseudomonas aeruginosa, read-out: Inhibition zone (diameter); for zone of inhibition at 1000 µg/mL: NCTC10490, 1 mg/ml; for zone of inhibition at 10000 µg/mL: NCTC10490, 10 mg/ml; for Inhibition zone (diameter): 1 mg/ml
Source text: as §1

Proteus vulgaris OX-107 = assay: disc plate method (Table 2); type: cell-based; settings: paper disc 8 mm; for zone of inhibition at 1000 µg/mL / zone of inhibition at 10000 µg/mL: Proteus vulgaris, read-out: Inhibition zone (diameter); for zone of inhibition at 1000 µg/mL: OX107, 1 mg/ml; for zone of inhibition at 10000 µg/mL: OX107, 10 mg/ml; for Inhibition zone (diameter): 1 mg/ml
Source text: as §1

[2] = system: Staphylococcus aureus 209D-JC-1; assay: disc plate method (Table 2); type: cell-based; settings: paper disc 8 mm; for zone of inhibition at 1000 µg/mL / zone of inhibition at 10000 µg/mL: Staphylococcus aureus, read-out: Inhibition zone (diameter); for zone of inhibition at 1000 µg/mL: 209DJC1, 1 mg/ml; for zone of inhibition at 10000 µg/mL: 209DJC1, 10 mg/ml; for Inhibition zone (diameter): 1 mg/ml
Source text: as §1

Serratia marcescens NHL = assay: disc plate method (Table 2); type: cell-based; settings: paper disc 8 mm; for zone of inhibition at 1000 µg/mL / zone of inhibition at 10000 µg/mL: Serratia marcescens, read-out: Inhibition zone (diameter); for zone of inhibition at 1000 µg/mL / Inhibition zone (diameter): 1 mg/ml; for zone of inhibition at 10000 µg/mL: 10 mg/ml
Source text: as §1

[3] = system: Escherichia coli NIHJ JC-2; assay: disc plate method (Table 2); type: cell-based; settings: paper disc 8 mm; for zone of inhibition at 1000 µg/mL / zone of inhibition at 10000 µg/mL: Escherichia coli, read-out: Inhibition zone (diameter); for zone of inhibition at 1000 µg/mL: NIHJJC2, 1 mg/ml; for zone of inhibition at 10000 µg/mL: NIHJJC2, 10 mg/ml; for Inhibition zone (diameter): 1 mg/ml
Source text: as §1

[4] = system: Klebsiella pneumoniae PCI 602; assay: disc plate method (Table 2); type: cell-based; settings: paper disc 8 mm; for zone of inhibition at 1000 µg/mL: Klebsiella pneumoniae, PCI602, 1 mg/ml, read-out: Inhibition zone (diameter); for Inhibition zone (diameter): 1 mg/ml
Source text: as §1

[5] = system: Bacillus subtilis ATCC 6633; assay: disc plate method (Table 2); type: cell-based; settings: paper disc 8 mm; for zone of inhibition at 1000 µg/mL / zone of inhibition at 10000 µg/mL: Bacillus subtilis, read-out: Inhibition zone (diameter); for zone of inhibition at 1000 µg/mL: ATCC6633, 1 mg/ml; for zone of inhibition at 1000 µg/mL / Inhibition zone (diameter): Bacillus subtilis ATCC 6633 (Table 2); for zone of inhibition at 10000 µg/mL: ATCC6633, 10 mg/ml, Bacillus subtilis ATCC 6633; for Inhibition zone (diameter): 1 mg/ml
Source text: as §1

Structure (SMILES)	Stability (stable at pH) (Stability)	Solubility in solvents: chloroform (Solubility in solvents)	Solubility in solvents: ethyl acetate (Solubility in solvents)	Solubility in solvents: methanol (Solubility in solvents)	Solubility in solvents: water (Solubility in solvents)	Inhibition zone (diameter) (Proteus inconstans)	zone of inhibition at 1000 µg/mL [1]	zone of inhibition at 1000 µg/mL (Proteus vulgaris OX-107)	zone of inhibition at 1000 µg/mL [2]	zone of inhibition at 1000 µg/mL (Serratia marcescens NHL)	zone of inhibition at 1000 µg/mL [3]	zone of inhibition at 1000 µg/mL [4]	zone of inhibition at 1000 µg/mL [5]	zone of inhibition at 1000 µg/mL (Proteus inconstans)	also measured
CNC1C(O)CC(N)C(OC2OC(C(C)N)CCC2N)C1O (stereo not shown) [KA-6606 IX]	2-10 pH	Insoluble	Insoluble	Easily soluble	Easily soluble	9.4 mm	15.9 mm	15.2 mm	22.9 mm	16 mm	16.7 mm	13.7 mm	23.8 mm	–	–
CNC1C(OC)CC(N)C(OC2OC(C(C)N)=CCC2N)C1O (stereo not shown) [KA-6606 XIII]	2-10 pH	Insoluble	Insoluble	Easily soluble	Easily soluble	–	14.8 mm	18.5 mm	22 mm	18.5 mm	18.4 mm	17 mm	22.6 mm	14.3 mm	–
CNC1C(O)CC(N)C(OC2OC(CO)C(O)C(O)C2N)C1O (stereo not shown) [KA-6606 XII]	2-10 pH	Insoluble	Insoluble	–	Easily soluble	–	–	–	–	–	–	–	–	–	zone of inhibition at 10000 µg/mL [1]: 9.3 mm; zone of inhibition at 10000 µg/mL (Proteus vulgaris OX-107): 9.3 mm; zone of inhibition at 10000 µg/mL [2]: 16.8 mm; zone of inhibition at 10000 µg/mL (Serratia marcescens NHL): 9.8 mm; zone of inhibition at 10000 µg/mL [3]: 9.2 mm; zone of inhibition at 10000 µg/mL [5]: 17.7 mm
CNC1C(OC)CC(N)C(OC2OC(CN)CCC2N)C1O (stereo not shown) [KA-6606 XIV]	2-10 pH	Insoluble	Insoluble	Easily soluble	Easily soluble	–	9.2 mm	12 mm	17.1 mm	13.5 mm	11.8 mm	9.5 mm	19.1 mm	8.5 mm	–
CNC1C(O)CC(N)C(OC2OC(C(C)N)CCC2N)C1O (stereo not shown) [KA-6606 XI]	2-10 pH	Insoluble	Insoluble	Easily soluble	Easily soluble	19.0 mm	–	–	–	–	–	–	–	–	Inhibition zone (diameter) [1]: 16.6 mm; Inhibition zone (diameter) (Proteus vulgaris OX-107): 15.1 mm; Inhibition zone (diameter) [2]: 25.2 mm; Inhibition zone (diameter) (Serratia marcescens NHL): 16.8 mm; Inhibition zone (diameter) [3]: 18.0 mm; Inhibition zone (diameter) [4]: 18.5 mm; Inhibition zone (diameter) [5]: 23.5 mm
CNC1C(OC)CC(NC(N)=O)C(OC2OC(C(C)N)CCC2N)C1O (stereo not shown) [KA-6606 XVII]	2-10 pH	Insoluble	Insoluble	Easily soluble	Easily soluble	–	–	–	–	–	–	–	–	–	zone of inhibition at 10000 µg/mL [1]: 10.1 mm; zone of inhibition at 10000 µg/mL (Proteus vulgaris OX-107): 16.8 mm; zone of inhibition at 10000 µg/mL [2]: 14.2 mm; zone of inhibition at 10000 µg/mL (Serratia marcescens NHL): 13.6 mm; zone of inhibition at 10000 µg/mL [3]: 10.7 mm; zone of inhibition at 10000 µg/mL [5]: 17.3 mm
CNC1C(OC)CC(N)C(OC2OC(C(C)N)CCC2NC(N)=O)C1O (stereo not shown) [KA-6606 XVI]	2-10 pH	Insoluble	Insoluble	Easily soluble	Easily soluble	–	11.8 mm	15.8 mm	16.3 mm	16.3 mm	16.2 mm	8.5 mm	20.6 mm	8.9 mm	–
CNC1C(OC)CC(N)C(OC2OC(CN)=CCC2N)C1O (stereo not shown) [KA-6606 XV]	2-10 pH	Insoluble	Insoluble	Easily soluble	Easily soluble	–	16.2 mm	16.4 mm	23.3 mm	18.2 mm	18.5 mm	18.6 mm	23.1 mm	9 mm	–
CNC1C(O)CC(N)C(OC2OC(C(C)N)CCC2N)C1O (stereo not shown) [KA-6606 X]	2-10 pH	Insoluble	Insoluble	Easily soluble	Easily soluble	11.9 mm	–	–	–	–	–	–	–	–	Inhibition zone (diameter) [1]: 13.8 mm; Inhibition zone (diameter) (Proteus vulgaris OX-107): 16.6 mm; Inhibition zone (diameter) [2]: 23.3 mm; Inhibition zone (diameter) (Serratia marcescens NHL): 16.5 mm; Inhibition zone (diameter) [3]: 16.3 mm; Inhibition zone (diameter) [4]: 17.4 mm; Inhibition zone (diameter) [5]: 22.5 mm
